Experimental data published in patent US4877782A, “Zinc ceftiofur complexes” (The Upjohn Company, priority 1988, dated 1989).
Where a name gives a salt, the structure may show the parent alone. Read-outs that look alike come from different tables or passages of the source.

Columns and labels:
[1] = system: Salmonella typhimurium UC6164; assay: standard mouse challenge test against Salmonella typhimurium UC6164 (survival, ED50); assay type: in vivo; details: for ED50: mice, s.c., adjusted for drug potency, 95% confidence limits
Description: (§1) Each test compound was suspended or dissolved in sterile Vehicle 122 (0.025% carboxymethylcellulose in water) to a starting test concentration sufficient to provide in the first set of test animals a concentration of the test drug of 2 mg./kg. Portions of each such test drug formulation were diluted seriatim 50:50 v/v with water to reduce the concentration of the test drug in the test animal to 1 mg./kg., then to 0.5 mg./kg., to 0.25 mg./kg. and finally to 0.125 mg./kg. Sets of mice were injected with the test dilutions of the test drugs subcutaneously once or three times after injecting challenge doses lethal doses of one of the above-named bacterial organisms. The sets of animals were observed over six days to determine the number of surviving mice. The mortality ratios were noted and the ED50 values were calculated for each test drug by standard methods.

bulk density = assay type: physicochemical
[2] = dispersibility in water, organic solvents and vegetable oils; assay type: physicochemical; details: in words
[3] = system: Pasteurella multocida UC9581; assay: standard mouse challenge test against Pasteurella multocida UC9581 (survival, ED50); assay type: in vivo; details: for ED50: mice, s.c., adjusted for drug potency, 95% confidence limits
Description: as §1

[4] = dissolution rate in water; assay type: physicochemical; details: for percent in aqueous solution in 20 minutes: ceftiofur hydrochloride unmicronized
[5] = zinc ceftiofur hydrochloride vs. non-complexed hydrochloride salt
[6] = 20 minutes, comparable equilibration conditions
[7] = mouse challenge, in words, from ED50 numbers of Table I

Row | Compound | ED50 ([1]; Salmonella enterica, sc, 144 h, UC6164, 579 LD50's, 1X treatment, read-out: ED50) [mg/kg] | ED50 ([1]; Salmonella enterica, sc, 144 h, UC6164, 1000 LD50's, 1X treatment, read-out: ED50) [mg/kg] | ED50 ([1]; Salmonella enterica, sc, 144 h, UC6164, 1000 LD50's, 3X treatments, read-out: ED50) [mg/kg] | bulk density (bulk density; [5]) | distribution in pharmaceutical aqueous vehicle formulations [2] | ED50 ([3]; Pasteurella multocida, sc, 144 h, UC9581, 27 LD50's, 3X treatments, read-out: ED50) [mg/kg] | percent in aqueous solution in 20 minutes [4, 6] [%] | ED50 ([1]; UC6164, 1000 LD50's, 1X treatment, 8640 min, listed as C--Na) [mg/kg/day] | bulk density (bulk density; zinc ceftiofur sodium complex from water vs. ceftiofur sodium salt) [g/mL] | solubility in water after 20 minutes ([4]; 20 minutes, comparable equilibration conditions, zinc complex unmicronized) [%] | dissolution rate curves (percent dissolved over time) ([4]; in words, compared with sodium ceftiofur and ceftiofur hydrochloride) | ED50 ([1]; UC6164, 579 LD50's, 1X treatment, 8640 min) [mg/kg/day] | ED50 ([1]; UC6164, 1000 LD50's, 1X treatment, 8640 min) [mg/kg/day] | ED50 ([1]; UC6164, 1000 LD50's, 3X treatments, 8640 min) [mg/kg/day] | antibiotic protection [1, 7] | dispersibility in water and in common pharmaceutical organic solvents and vegetable oils ([2]; granular powders) | ED50 ([3]; UC9581, 27 LD50's, 3X treatments, 8640 min) [mg/kg/day] | ED50 ([3]; UC9581, 303 LD50's, 1X treatment, 8640 min) [mg/kg/day] | antibiotic protection [3, 7] | rate of dissolution ([4]; in words, compared to ceftiofur hydrochloride)
1 | CO/N=C(\C(=O)N[C@@H]1C(=O)N2C(C(=O)O)=C(CSC(=O)c3ccco3)CS[C@H]12)c1csc(N)n1 [ceftiofur hydrochloride] | 1.7 | 1.3 | 2.3 | 0.15 g/mL | less well adapted for distribution in pharmaceutical aqueous vehicle formulations | 0.3 | 74 |  |  |  |  |  |  |  |  |  |  |  |  | 
2 | CO/N=C(\C(=O)N[C@@H]1C(=O)N2C(C(=O)O)=C(CSC(=O)c3ccco3)CS[C@H]12)c1csc(N)n1 [ceftiofur sodium] |  |  |  |  |  |  |  | 1.1 | 0.11 | 100 | dissolves quite quickly in water |  |  |  |  |  |  |  |  | 
3 | zinc ceftiofur hydrochloride complex [Compound II] |  |  |  | about 0.24 g./ml. |  |  | 48 |  |  |  |  | 1.0 | 3.3 | 2.1 | potent antibiotic protection | readily dispersible in water | 0.4 | 0.3 | potent antibiotic protection | much slower compared to ceftiofur hydrochloride
